Measurements reported in patent US7781421B2, “Neuroactive 13, 24-cyclo-18, 21-dinorcholanes and structurally related pentacyclic steriods” (Washington University, priority 2003, dated 2010).

How the values were obtained:
[1] = biological target: GABAA receptor ([35S]-TBPS binding site, rat brain cortical membranes); assay: Displacement of [35S]-TBPS binding, rat brain cortical membranes; conditions: 5 μM GABA, 2 nM [35S]-TBPS; ± standard error of the means
In short: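 Rat cortical P2 membranes (0.5 mg/mL protein) incubated 2 h at room temperature with 2 nM [35S]-TBPS, 5 μM GABA and steroid (1 nM–10 μM) in 200 mM NaCl/50 mM potassium phosphate, pH 7.4. Filter-bound radioactivity counted; IC50 from Hill equation fit, triplicate points.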

[2] = biological target: T1, rat α1β2γ2 GABAA Receptor (Rattus norvegicus, UniProt P18508+P62813+P63138, INS375LLRMFSFK); assay: Xenopus oocyte two-electrode voltage-clamp electrophysiology; assay type: cell-based; conditions: for Oocyte electrophysiology, ratio of currents in presence/absence of compound, 0.1 μM: 0.1 μM compound co-applied with 2 μM GABA; for Oocyte electrophysiology, ratio of currents in presence/absence of compound, 0.1 μM / Oocyte electrophysiology, ratio of currents in presence/absence of compound, 1 μM / Oocyte electrophysiology, ratio of currents in presence/absence of compound, 10 μM: −70 mV; for Oocyte electrophysiology, ratio of currents in presence/absence of compound, 1 μM: 1 μM compound co-applied with 2 μM GABA; for Oocyte electrophysiology, ratio of currents in presence/absence of compound, 10 μM: 10 μM compound co-applied with 2 μM GABA; for Gating (10 μM), ratio of compound only current/2 μM GABA current: direct current gated by 10 μM compound in the absence of GABA
T1 construct: from linearized pBluescript vectors containing receptor coding regions; expressed in transfected cells; host or cells: Xenopus laevis oocytes injected with in vitro transcribed capped mRNA
In short: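 Oocytes injected with rat α1, β2, γ2L mRNA, voltage-clamped at −70 mV 2-5 days later in ND96. Compounds co-applied with 2 μM GABA for 20 s; peak current ratio with/without compound, n≥4 oocytes. (G): current from 10 μM compound alone, as ratio to 2 μM GABA current.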

[3] = system: Xenopus laevis tadpoles; assay: Tadpole loss of righting (LRR) and swimming (LSR) reflexes; assay type: in vivo; conditions: 3 h equilibration at room temperature; for EC50: Xenopus laevis, 3 h, read-out: LSR EC50 (loss of swimming response)
In short: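 Groups of 10 early prelimb-bud Xenopus laevis tadpoles were held for 3 h at room temperature in oxygenated Ringer's containing compound (DMSO ≤0.1%). Loss of righting was scored as failure to right within 5 sec after flipping, and loss of swimming as failure to swim when touched. EC50 came from a Hill equation fit.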

T1 sequence (P62813 28-455, stated change not applied): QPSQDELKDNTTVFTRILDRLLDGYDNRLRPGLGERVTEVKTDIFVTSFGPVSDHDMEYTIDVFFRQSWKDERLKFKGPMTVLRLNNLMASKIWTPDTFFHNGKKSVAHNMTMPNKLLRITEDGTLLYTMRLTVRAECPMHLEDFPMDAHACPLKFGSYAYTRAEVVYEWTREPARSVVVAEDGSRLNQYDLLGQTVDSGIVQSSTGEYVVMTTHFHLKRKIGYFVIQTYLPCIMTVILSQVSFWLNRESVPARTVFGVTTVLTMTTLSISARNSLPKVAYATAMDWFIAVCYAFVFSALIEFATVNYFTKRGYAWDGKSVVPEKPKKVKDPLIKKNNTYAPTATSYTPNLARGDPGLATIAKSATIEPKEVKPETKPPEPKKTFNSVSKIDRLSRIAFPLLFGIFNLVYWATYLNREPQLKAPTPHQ
T1 sequence (P63138 26-474, stated change not applied): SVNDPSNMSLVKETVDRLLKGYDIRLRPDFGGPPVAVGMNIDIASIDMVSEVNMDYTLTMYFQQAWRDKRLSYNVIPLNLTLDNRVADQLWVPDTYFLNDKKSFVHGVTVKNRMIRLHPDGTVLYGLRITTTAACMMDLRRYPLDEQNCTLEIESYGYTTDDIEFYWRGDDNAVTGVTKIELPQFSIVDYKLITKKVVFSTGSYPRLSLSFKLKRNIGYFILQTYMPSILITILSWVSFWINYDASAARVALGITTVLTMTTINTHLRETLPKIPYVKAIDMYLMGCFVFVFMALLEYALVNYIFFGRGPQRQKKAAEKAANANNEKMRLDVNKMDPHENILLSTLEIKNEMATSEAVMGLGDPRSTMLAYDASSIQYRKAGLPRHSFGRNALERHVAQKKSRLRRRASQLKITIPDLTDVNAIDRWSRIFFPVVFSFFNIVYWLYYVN
T1 sequence (P18508 with tags, fused parts or gaps INS375LLRMFSFK): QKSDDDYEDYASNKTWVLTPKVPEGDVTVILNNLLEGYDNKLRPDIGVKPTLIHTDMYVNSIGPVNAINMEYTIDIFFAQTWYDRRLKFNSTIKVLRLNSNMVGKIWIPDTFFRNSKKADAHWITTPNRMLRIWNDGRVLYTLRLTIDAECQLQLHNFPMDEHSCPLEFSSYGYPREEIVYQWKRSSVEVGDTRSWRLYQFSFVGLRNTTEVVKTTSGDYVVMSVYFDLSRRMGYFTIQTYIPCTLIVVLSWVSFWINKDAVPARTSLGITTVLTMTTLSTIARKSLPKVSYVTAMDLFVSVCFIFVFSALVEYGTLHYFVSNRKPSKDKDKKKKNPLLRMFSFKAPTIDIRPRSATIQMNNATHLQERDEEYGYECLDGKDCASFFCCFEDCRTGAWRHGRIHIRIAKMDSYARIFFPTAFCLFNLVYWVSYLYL

| SMILES | IC50 [1] [nM] | Oocyte electrophysiology, ratio of currents in presence/absence of compound, 0.1 μM [2] | Oocyte electrophysiology, ratio of currents in presence/absence of compound, 1 μM [2] | Oocyte electrophysiology, ratio of currents in presence/absence of compound, 10 μM [2] | Gating (10 μM), ratio of compound only current/2 μM GABA current [2] | LRR ED50 (loss of righting response) [3] | EC50 [3] [nM] | melting point [°C] | LSR EC50 (loss of swimming response) [3] |
| --- | --- | --- | --- | --- | --- | --- | --- | --- | --- |
| CC12CCC(O)CC1CCC1C2CCC23CCC(=O)C2CCC13 (stereo not drawn) [Compound 89, (3α,5α)-3-Hydroxy-18,21-cyclopregnan-20-one] | 204 ± 36 | 0.81 ± 0.02 | 1.02 ± 0.07 | 4.54 ± 0.64 | 0.01 ± 0.00 | 2630 ± 70 nM | 5480 ± 150 | 176 to 178.5 | – |
| CC12CCC(O)CC1CCC1C2CCC23CCCC(O)C2CCC13 [Compound 67, (3α,5α,20S)-13,24-cyclo-18,21-dinorcholane-3,20-diol] | 613 ± 92 | 0.89 ± 0.03 | 0.94 ± 0.08 | 1.37 ± 0.15 | −0.01 ± 0.00 | None @ 10 | – | 261 to 262 | None @ 10 |
| CC12CCC(O)CC1CCC1C2CCC23CCCC(=CC#N)C2CCC13 (stereo not drawn) [Compound 64, (3α,5α,20Z)-3-Hydroxy-13,24-cyclo-18-norcholan-20-ene-21-carbonitrile] | 1080 | 1.19 ± 0.04 | 1.27 ± 0.03 | 1.74 ± 0.11 | 0.03 ± 0.04 | 680 ± 150 nM | 10200 | 201.5 to 203 | – |
| CC(=O)C1CCCC23CCC4C(CCC5CC(O)CCC54C)C2CCC13 [Compound 79, (3α,5α,20S)-1-[3-Hydroxy-13,24-cyclo-18,21-dinorcholan-20-yl]ethanone] | 93 ± 9 | 1.00 ± 0.08 | 1.13 ± 0.15 | 1.70 ± 0.12 | −0.06 ± 0.04 | None @ 10 | – | 187 to 189 | None @ 10 |
| C=C1CCC[C@]23CCC4C(CC[C@H]5C[C@H](O)CC[C@]45C)C2CC[C@H]13 (stereo partly drawn) [Compound 51, (3α,5α)-20-Methylene-13,24-cyclo-18,21-dinorcholan-3-ol] | 181 ± 9 | 0.90 ± 0.15 | 0.93 ± 0.08 | 0.95 ± 0.05 | −0.06 ± 0.06 | >10000 nM | – | 211 to 213 | None @ 10 |
